The source made the active and inactive calls. No cut-off for these calls is given here.
Assays:
Type in all cases: functional
[1] = system: OVCAR-5; assay: (§1) Cytotoxicity against human OVCAR5 cells assessed as growth inhibition at 10 uM after 48 hrs by SRB assay
[2] = Cytotoxicity against human SF295 cells after 48 hrs by SRB assay; conditions: SF-295, 48 h
[3] = system: NCI-H460; assay: Cytotoxicity against human NCI-H460 cells after 48 hrs by SRB assay; conditions: NCI-H460, 48 h
[4] = Cytotoxicity against human LOXIMVI cells after 48 hrs by SRB assay; conditions: LOX IMVI
[5] = Cytotoxicity against human PC3 cells after 48 hrs by SRB assay; conditions: PC-3, 48 h
[6] = system: NCI-H226; assay: Cytotoxicity against human NCI-H226 cells after 48 hrs by SRB assay; conditions: NCI-H226, 48 h
[7] = system: MDA-MB-468; assay: Cytotoxicity against human MDA-MB-468 cells after 48 hrs by SRB assay; conditions: MDA-MB-468, 48 h
[8] = Cytotoxicity against human OVCAR5 cells after 48 hrs by SRB assay; conditions: OVCAR-5, 48 h
[9] = Cytotoxicity against human RXF393 cells after 48 hrs by SRB assay; conditions: RXF 393, 48 h
[10] = system: U-251; assay: Cytotoxicity against human U251 cells after 48 hrs by SRB assay; conditions: U-251, 48 h
[11] = system: M14; assay: Cytotoxicity against human M14 cells after 48 hrs by SRB assay; conditions: M14, 48 h
[12] = Cytotoxicity against human SNB19 cells after 48 hrs by SRB assay; conditions: SNB-19, 48 h
[13] = Cytotoxicity against human MOLT4 cells after 48 hrs by SRB assay; conditions: MOLT-4, 48 h
[14] = system: SN12C; assay: Cytotoxicity against human SN12C cells after 48 hrs by SRB assay
[15] = Cytotoxicity against human OVCAR3 cells after 48 hrs by SRB assay; conditions: OVCAR-3, 48 h
[16] = system: T47D; assay: Cytotoxicity against human T47D cells after 48 hrs by SRB assay
[17] = system: SR; assay: Cytotoxicity against human SR cells after 48 hrs by SRB assay
[18] = system: MCF7; assay: Cytotoxicity against human MCF7 cells after 48 hrs by SRB assay; conditions: MCF7, 48 h
[19] = Cytotoxicity against human SKOV3 cells after 48 hrs by SRB assay; conditions: SK-OV-3, 48 h
[20] = system: NCI-H322M; assay: Cytotoxicity against human NCI-H322M cells after 48 hrs by SRB assay
[21] = Cytotoxicity against human OVCAR8 cells after 48 hrs by SRB assay; conditions: OVCAR-8, 48 h
[22] = system: MDA-MB-435; assay: Cytotoxicity against human MDA-MB-435 cells after 48 hrs by SRB assay; conditions: MDA-MB-435, 48 h
[23] = system: ACHN; assay: Cytotoxicity against human ACHN cells after 48 hrs by SRB assay
[24] = Cytotoxicity against human SNB75 cells after 48 hrs by SRB assay; conditions: SNB-75, 48 h
[25] = Cytotoxicity against human Hs578T cells after 48 hrs by SRB assay; conditions: Hs-578T
[26] = system: A549; assay: Cytotoxicity against human A549 cells after 48 hrs by SRB assay; conditions: A549, 48 h
[27] = Cytotoxicity against human HOP92 cells after 48 hrs by SRB assay; conditions: HOP-92, 48 h
[28] = as §1; conditions: OVCAR-5, 48 h, read-out: GI
[29] = system: EKVX; assay: Cytotoxicity against human EKVX cells after 48 hrs by SRB assay
[30] = system: MDA-MB-231; assay: Cytotoxicity against human MDA-MB-231 cells after 48 hrs by SRB assay; conditions: MDA-MB-231, 48 h
[31] = system: SK-MEL-5; assay: Cytotoxicity against human SK-MEL-5 cells after 48 hrs by SRB assay; conditions: SK-MEL-5, 48 h
[32] = Cytotoxicity against human DU145 cells after 48 hrs by SRB assay; conditions: DU-145, 48 h
[33] = Cytotoxicity against human RPMI8226 cells after 48 hrs by SRB assay; conditions: RPMI-8226, 48 h
[34] = Cytotoxicity against human TK10 cells after 48 hrs by SRB assay; conditions: TK-10, 48 h
[35] = system: SK-MEL-2; assay: Cytotoxicity against human SK-MEL-2 cells assessed as growth level at 10 uM after 48 hrs by SRB assay
[36] = system: SK-MEL-2; assay: Cytotoxicity against human SK-MEL-2 cells assessed as growth inhibition at 10 uM after 48 hrs by SRB assay; conditions: SK-MEL-2, 48 h, read-out: GI
[37] = read-out: LC50 (the source's name)

Structure (SMILES): C=C1CC[C@@H]2[C@](C)(COC(C)=O)[C@H](OC(C)=O)CC[C@@]2(C)[C@@H]1CC(NCc1ccccc1)C1=CCOC1=O (mixture of isomers)
- growth inhibition (GI) [1]: inactive

Structure (SMILES): C=C1CC[C@@H]2[C@](C)(COC(C)=O)[C@H](OC(C)=O)CC[C@@]2(C)[C@@H]1C/C=C1/C(=O)OC[C@H]1OC(C)=O
- GI50 [2]: 13.3 µM
- LC50 [2]: 54.2 µM
- TGI [2]: 26.8 µM
- GI50 [3]: 18.6 µM
- TGI [3]: 37.7 µM
- CC50 [3, 37]: 76.2 µM
- GI50 [4]: 1.42 µM
- LC50 [4]: 5.73 µM
- TGI [4]: 2.85 µM
- GI50 [5]: 6.07 µM
- LC50 [5]: 48.9 µM
- TGI [5]: 19.9 µM
- GI50 [6]: 2.14 µM
- LC50 [6]: 19.9 µM
- TGI [6]: 5.42 µM
- GI50 [7]: 2.04 µM
- LC50 [7]: 74.4 µM
- TGI [7]: 5.69 µM
- GI50 [8]: 1.93 µM
- LC50 (concentration causing 50% net cell kill) [8]: 7.97 µM
- TGI [8]: 3.92 µM
- GI50 [9]: 1.95 µM
- LC50 (concentration causing 50% net cell kill) [9]: 8.75 µM
- TGI [9]: 4.13 µM
- GI50 [10]: 6.09 µM
- LC50 (concentration giving 50% net cell kill) [10]: 48.6 µM
- TGI [10]: 19.3 µM
- GI50 [11]: 2.22 µM
- LC50 [11]: 26.5 µM
- TGI [11]: 6.48 µM
- GI50 [12]: 10.8 µM
- LC50 (concentration killing 50% of cells) [12]: 55.6 µM
- TGI [12]: 24.5 µM
- GI50 [13]: 3.8 µM
- LC50 [13]: > 100 µM
- TGI [13]: 16.1 µM
- GI50 [14]: 3.07 µM
- LC50 (concentration killing 50% of cells) [14]: 72 µM
- TGI [14]: 13.3 µM
- GI50 [15]: 2.17 µM
- LC50 (concentration killing 50% of cells) [15]: 8.15 µM
- TGI [15]: 4.21 µM
- GI50 [16]: 2.86 µM
- LC50 (concentration killing 50% of cells) [16]: > 100 µM
- TGI [16]: 13.8 µM
- GI50 [17]: 2.59 µM
- TGI [17]: 10.1 µM
- CC50 [17, 37]: > 100 µM
- GI50 [18]: 1.83 µM
- LC50 (50% lethal concentration) [18]: > 100 µM
- TGI [18]: 6.79 µM
- GI50 [19]: 19.1 µM
- TGI [19]: 36.3 µM
- CC50 [19, 37]: 68.8 µM
- GI50 [20]: 16 µM
- LC50 [20]: 55.3 µM
- TGI [20]: 29.7 µM
- GI50 [21]: 3.38 µM
- LC50 [21]: > 100 µM
- TGI [21]: 22 µM
- GI50 [22]: 2.63 µM
- LC50 (50% lethal concentration) [22]: 32.2 µM
- TGI [22]: 10.1 µM
- GI50 [23]: 1.71 µM
- LC50 [23]: 6.06 µM
- TGI [23]: 3.22 µM
- GI50 [24]: 2.83 µM
- TGI [24]: 14.2 µM
- CC50 [24, 37]: 37.6 µM
- GI50 [25]: 12.3 µM
- LC50 (concentration killing 50% of cells) [25]: > 100 µM
- TGI [25]: 55.4 µM
- GI50 [26]: 11.9 µM
- LC50 [26]: 79.3 µM
- TGI [26]: 30.7 µM
- GI50 [27]: 13.2 µM
- LC50 [27]: 52.7 µM
- TGI [27]: 26.4 µM
- inhibition of growth at 10 µM [28]: 46.3%
- GI50 [29]: 12.9 µM
- LC50 [29]: 50.9 µM
- TGI [29]: 25.6 µM
- GI50 [30]: 12.5 µM
- LC50 [30]: 58.7 µM
- TGI [30]: 27.1 µM
- GI50 [31]: 9.5 µM
- LC50 (concentration killing 50% of cells) [31]: 51 µM
- TGI [31]: 22.4 µM
- GI50 [32]: 4.47 µM
- LC50 (concentration killing 50% of cells) [32]: 38.4 µM
- TGI [32]: 14.7 µM
- GI50 [33]: 2.07 µM
- LC50 [33]: > 100 µM
- TGI [33]: 7.68 µM
- GI50 [34]: 3.81 µM
- LC50 [34]: 38.2 µM
- TGI [34]: 13.3 µM

Structure (SMILES): C=C1CC[C@@H]2[C@](C)(COC(C)=O)[C@H](OC(C)=O)CC[C@@]2(C)[C@@H]1CC(NCc1ccc(F)cc1)C1=CCOC1=O (mixture of isomers)
- Activity [35]: 73.2%
- inhibition of growth at 10 µM [36]: 26.8%
- inhibition of growth at 10 µM [28]: 1%

Structure (SMILES): C=C1CC[C@@H]2[C@](C)(CO)[C@H](O)CC[C@@]2(C)[C@@H]1C/C=C1/C(=O)OC[C@H]1O [ANDROGRAPHOLIDE]
- growth inhibition (GI) [1]: inactive

Structure (SMILES): C=C1CC[C@@H]2[C@](C)(COC(C)=O)[C@H](OC(C)=O)CC[C@@]2(C)[C@@H]1CC(NC1CCCC1)C1=CCOC1=O (stereo partly drawn)
- Activity [35]: 85.11%
- inhibition of growth at 10 µM [36]: 14.9%
- growth inhibition (GI) [1]: inactive

Structure (SMILES): C=C1CC[C@@H]2[C@](C)(COC(C)=O)[C@H](OC(C)=O)CC[C@@]2(C)[C@@H]1CC(NCc1cccc(Cl)c1)C1=CCOC1=O (mixture of isomers)
- Activity [35]: 68.04%
- inhibition of growth at 10 µM [36]: 32%
- inhibition of growth at 10 µM [28]: 0.31%
